Laboratory results from US20220306630A1, “AGONISTS OF ROR GAMMAt” (BRISTOL-MYERS SQUIBB COMPANY, priority 2019, published 2022).

molecular target: T1, RORgT (Homo sapiens, UniProt P51449); assay: RORgT Gal4 Luciferase Reporter Gene Assay; type: cell-based; conditions: engineered Jurkat cells overexpressing RORgT (LBD or full length) with Gal4 Luc reporter; 18 hours at 37° C.; 40 μM to 0.67 nM; read-out: RORg_GAL4 EC50
T1 construct: Gal4 (fusion partner); expressed in transfected cells; host or cells: engineered Jurkat cells (Jurkat pEx/Gal/hRORγ CLBD/HYG pG5luc/blast)
T1 sequence (P51449 267-516): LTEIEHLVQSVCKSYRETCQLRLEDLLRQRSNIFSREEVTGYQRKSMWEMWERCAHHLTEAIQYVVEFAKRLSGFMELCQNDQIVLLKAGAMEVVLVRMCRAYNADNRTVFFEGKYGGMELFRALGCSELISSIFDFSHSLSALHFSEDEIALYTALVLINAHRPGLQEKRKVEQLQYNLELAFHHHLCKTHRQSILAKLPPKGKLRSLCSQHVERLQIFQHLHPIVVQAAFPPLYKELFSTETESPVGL
In short: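 Cells exposed to compound 18 hours at 37° C, then lysed for luciferase luminescence. Inhibition of constitutive activity expressed as percent reduction of signal window relative to a control compound.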

Compound	EC50
CC1(c2cc(F)cc(Oc3c(Cl)cc(NC(=O)CC4CCN(S(C)(=O)=O)CC4)cc3Cl)c2)CC1 [Example 51, N-(3,5-dichloro-4-(3-fluoro-5-(1-methylcyclopropyl)phenoxy)phenyl)-2-(1-(methylsulfonyl)piperidin-4-yl)acetamide]	1.7 nM
COc1ccc(Oc2c(Cl)cc(NC(=O)Cc3cncn3C)cc2Cl)cc1C(C)C [Example 248]	2250 nM
COc1ncc(Oc2c(Cl)ccc(NC(=O)CC3CCN(S(C)(=O)=O)CC3)c2Cl)cc1C(C)C [Example 129]	11 nM
COc1ccc(Oc2c(Cl)cc(NC(=O)CN(C)C)cc2Cl)cc1C(C)C [Example 280]	656 nM
COc1ncc(Oc2c(Cl)ccc(C(=O)NCc3ccc(S(C)(=O)=O)cc3)c2Cl)cc1C(C)C [Example 123]	5.4 nM
CCS(=O)(=O)N1CC2(CN(CC(=O)Nc3cc(Cl)c(Oc4ccc(OC)c(C(C)C)c4)c(Cl)c3)C2)C1 [Example 190]	989 nM
CCS(=O)(=O)N1CCN(CC(=O)Nc2cc(Cl)c(Oc3ccc(OC)c(C(C)C)c3)c(Cl)c2)CC1 [Example 313]	32 nM
CCNC(=O)Nc1cc(Cl)c(Oc2ccc(OC)c(C(C)C)c2)c(Cl)c1 [Example 306]	1890 nM
CC(C)(F)c1cc(F)cc(Oc2c(Cl)cc(NC(=O)CN3CCN(S(C)(=O)=O)CC3)cc2Cl)c1 [Example 334]	6.6 nM
COc1ccc(Oc2c(Cl)cc(NC(=O)CN3CC[C@H](NS(C)(=O)=O)C3)cc2Cl)cc1C(C)C [Example 165]	182 nM
COc1ccc(Oc2c(Cl)cc(NC(=O)CCN3CCCC3=O)cc2Cl)cc1C(C)C [Example 291]	134 nM
CCS(=O)(=O)N1CC2(CCN(C(=O)c3ccc(Cl)c(Oc4cc(F)cc(C(C)C)c4)c3Cl)CC2)C1 [Example 124]	121 nM
COc1ccc(Oc2c(Cl)ccc(C(=O)NCc3cccc(S(C)(=O)=O)c3)c2Cl)cc1C(C)C [Example 82]	7600 nM
CC(C)c1cc(F)cc(Oc2c(Cl)cc(NC(=O)CC3CCN(S(N)(=O)=O)CC3)cc2Cl)c1 [Example 270]	22 nM
CC1(c2cc(F)cc(Oc3c(Cl)ccc(C(=O)NCc4ccc(S(N)(=O)=O)cc4)c3Cl)c2)CC1 [Example 278]	1.7 nM
COc1ccc(Oc2c(Cl)ccc(C(=O)NCCC3CCS(=O)(=O)CC3)c2Cl)cc1C(C)C [Example 84]	152 nM
COc1ccc(Oc2c(Cl)ccc(C(=O)N3CCCCC3)c2Cl)cc1C(C)C [Example 184]	246 nM
CC(c1cc(F)cc(Oc2c(Cl)cc(NC(=O)CC3CCN(S(C)(=O)=O)CC3)cc2Cl)c1)C(F)(F)F (stereo not shown) [Example 352]	15 nM
COc1ccc(Oc2c(Cl)cc(NC(=O)Cc3cnn(C)c3)cc2Cl)cc1C(C)C [Example 246]	123 nM
COc1ncc(Oc2c(Cl)ccc(NC(=O)Cc3cccc(S(C)(=O)=O)c3)c2Cl)cc1C(C)C [Example 141]	182 nM
CCOc1ccc(Oc2c(Cl)cc(NC(=O)Cc3cccnc3)cc2Cl)cc1C(C)C [Example 50, N-(3,5-dichloro-4-(4-ethoxy-3-isopropylphenoxy)phenyl)-2-(pyridin-3-yl)acetamide]	75 nM
COC(=O)NCC1CN(c2cc(Cl)c(Oc3ccc(OC)c(C(C)C)c3)c(Cl)c2)C(=O)O1 (stereo not shown) [Example 251]	433 nM

Compound	EC50
COc1ncc(Oc2c(Cl)cc(NC(=O)CN3CCN(S(C)(=O)=O)CC3)cc2Cl)cc1C(C)C [Example 17, N-(3,5-dichloro-4-((5-isopropyl-6-methoxypyridin-3-yl)oxy)phenyl)-2-(4-(methylsulfonyl)piperazin-1-yl)acetamide]	5.2 nM
COc1ccc(Oc2c(Cl)cc(NC(=O)CCn3cncn3)cc2Cl)cc1C(C)C [Example 245]	1560 nM
CCCCNC(=O)c1ccc(Cl)c(Oc2ccc(OC)c(C(C)C)c2)c1Cl [Example 209]	659 nM
COc1ccc(Oc2c(Cl)cc(NC(=O)CCn3ccc(S(C)(=O)=O)n3)cc2Cl)cc1C(C)C [Example 252]	264 nM
COc1ccc(Oc2c(Cl)ccc(C(=O)NCC3CCS(=O)(=O)CC3)c2Cl)cc1C(C)C [Example 100]	117 nM
COc1ncc(Oc2c(Cl)cc(NC(=O)CC3CCN(S(=O)(=O)C4CC4)CC3)cc2Cl)cc1C(C)C [Example 119]	11 nM
COc1ccc(Oc2c(Cl)ccc(CNC(=O)c3ccc(S(N)(=O)=O)cc3)c2Cl)cc1C(C)C [Example 60]	139 nM
COc1ccc(Oc2c(Cl)cc(NC(=O)Cc3ccc(C)nc3)cc2Cl)cc1C(C)C [Example 344]	75 nM
CC(C)c1cc(F)cc(Oc2c(Cl)ccc(C(=O)NC(C)c3ccc(S(C)(=O)=O)cc3)c2Cl)c1 (stereo not shown) [Example 142]	71 nM
CC(C)c1cc(F)cc(Oc2c(Cl)ccc(CNC(=O)C3CCN(S(N)(=O)=O)CC3)c2Cl)c1 [Example 151]	9.9 nM
COc1ccc(Oc2c(Cl)ccc(C(=O)N3CCOCC3)c2Cl)cc1C(C)C [Example 211]	46 nM
COc1ccc(Oc2c(Cl)cc(NC(=O)C[C@H]3CCCN(S(C)(=O)=O)C3)cc2Cl)cc1C(C)C [Example 44, (R)—N-(3,5-dichloro-4-(3-isopropyl-4-methoxyphenoxy)phenyl)-2-(1-(methylsulfonyl)piperidin-3-yl)acetamide]	120 nM
COc1ccc(Oc2c(Cl)cc(NC(=O)CC#N)cc2Cl)cc1C(C)C [Example 301]	343 nM
COc1ccc(Oc2c(Cl)cc(NC(=O)C3(c4cccnc4)CCCCC3)cc2Cl)cc1C(C)C [Example 348]	372 nM
COc1ccc(Oc2c(Cl)ccc(C(=O)N(C)Cc3ccc(S(N)(=O)=O)cc3)c2Cl)cc1C(C)C [Example 110]	39 nM
COc1ncc(Oc2c(Cl)ccc(C(=O)NCc3ccc(S(C)(=O)=O)cc3)c2Cl)cc1C(C)(C)F [Example 152]	2.5 nM
COc1ccc(Oc2c(Cl)cc(NC(=O)CN3CC[C@@H](NS(=O)(=O)C4CC4)C3)cc2Cl)cc1C(C)C [Example 161]	2330 nM
COc1ccc(Oc2c(Cl)ccc(C(=O)Nc3cccc4cnccc34)c2Cl)cc1C(C)C [Example 207]	63 nM
COc1ccc(Oc2c(Cl)ccc(CNC(=O)CN3CCN(S(N)(=O)=O)CC3)c2Cl)cc1C(C)C [Example 90]	13 nM
COc1ccc(Oc2c(Cl)cc(NC(=O)[C@H]3CC[C@@H](C(=O)OC)CC3)cc2Cl)cc1C(C)C [Example 339]	983 nM
COc1ccc(Oc2c(Cl)ccc(C(=O)NC(C)c3cn(C)nc3C)c2Cl)cc1C(C)C (stereo not shown) [Example 204]	40 nM
COc1ccc(Oc2c(Cl)ccc(C(=O)NCC3CCCC(O)C3)c2Cl)cc1C(C)C (stereo not shown) [Example 226]	286 nM

Compound	EC50
COc1ccc(Oc2c(Cl)ccc(C(=O)N(C)CC3CCN(S(N)(=O)=O)CC3)c2Cl)cc1C(C)C [Example 103]	50 nM
CC(C)c1cc(F)cc(Oc2c(Cl)cc(NC(=O)Cc3ccc(S(C)(=O)=O)cc3)cc2Cl)c1 [Example 329]	32 nM
COc1ccc(Oc2c(Cl)ccc(C(=O)N3CCC(O)(c4ccccc4)CC3)c2Cl)cc1C(C)C [Example 180]	325 nM
CCS(=O)(=O)N1CCC(C(=O)NCc2ccc(Cl)c(Oc3ccc(OC)c(C(C)C)c3)c2Cl)CC1 [Example 212]	11 nM
COc1ccc(Oc2c(Cl)cc(NC(=O)Cc3ccc(S(C)(=O)=O)cc3)cc2Cl)cc1C(C)(C)F [Example 336]	14 nM
COc1ccc(Oc2c(Cl)ccc(NC(=O)CC3CN(S(C)(=O)=O)C3)c2Cl)cc1C(C)C [Example 58]	383 nM
COc1ccc(Oc2c(Cl)cc(NC(=O)CCCc3ccccc3)cc2Cl)cc1C(C)C [Example 285]	284 nM
COc1ccc(Oc2c(Cl)cc(NC(=O)Cc3cnccn3)cc2Cl)cc1C(C)C [Example 286]	316 nM
COc1ccc(Oc2c(Cl)ccc(C(=O)NC(C)c3ccnn3C)c2Cl)cc1C(C)C (stereo not shown) [Example 217]	45 nM
COc1ccc(Oc2c(Cl)cc(NC(=O)C(O)c3cccnc3)cc2Cl)cc1C(C)C (stereo not shown) [Example 247]	114 nM
CCS(=O)(=O)N1CCC(CC(=O)NCc2ccc(Cl)c(Oc3ccc(OC)c(C(C)C)c3)c2Cl)CC1 [Example 187]	522 nM
CC(C)(F)c1cc(F)cc(Oc2c(Cl)ccc(C(=O)NCc3ccc(S(N)(=O)=O)cc3)c2Cl)c1 [Example 337]	15 nM
COc1ccc(Oc2c(Cl)ccc(CNC(=O)CC3CCN(C(=O)C(F)(F)F)CC3)c2Cl)cc1C(C)C [Example 175]	345 nM
COc1ncc(Oc2c(Cl)ccc(CNC(=O)c3ccc(S(N)(=O)=O)cc3)c2Cl)cc1C(C)C [Example 146]	28 nM
COc1ncc(Oc2c(Cl)cc(NC(=O)CC3CCN(S(C)(=O)=O)CC3)cc2Cl)cc1C1CC1 [Example 126]	3.2 nM
COc1ncc(Oc2c(Cl)cc(NC(=O)CC3CCN(S(C)(=O)=O)CC3)cc2Cl)cc1C(C)(C)O [Example 27, N-(3,5-dichloro-4-((5-(2-hydroxypropan-2-yl)-6-methoxypyridin-3-yl)oxy)phenyl)-2-(1-(methylsulfonyl)piperidin-4-yl)acetamide]	30 nM
COc1ccc(Oc2c(Cl)cc(NC(=O)Cc3cccnc3)cc2Cl)cc1CC(C)C [Example 311]	153 nM
COc1ccc(Oc2c(Cl)cc(NC(=O)OCCS(C)(=O)=O)cc2Cl)cc1C(C)C [Example 1, 2-(methylsulfonyl)ethyl (3,5-dichloro-4-(3-isopropyl-4-methoxyphenoxy)phenyl)carbamate]	829 nM
COc1ncc(Oc2c(Cl)cc(NC(=O)CC3CCN(S(N)(=O)=O)CC3)cc2Cl)cc1C(C)C [Example 121]	13 nM
COc1ccc(Oc2c(Cl)ccc(N(C)C(=O)C(C)c3ccc(S(C)(=O)=O)cc3)c2Cl)cc1C(C)C (stereo not shown) [Example 66]	268 nM
